From patent US20060122198A1, “Antiepileptic agent” (Kyowa Hakko Kogyo Co., Ltd., priority 2003, published 2006)

Assays:
[1] = test system: male mice of dd-strain; conditions: mouse, in vivo, po, 7 days
Procedure: A test compound was orally administered to male mice (body weight: 20±1 g) of dd-strain which comprises three mice per group. State of death after 7 days from the administration was observed and the minimum lethal dose (MLD) was determined.

[2] = test system: convulsion induced by administration of reserpine and electric stimulation; test: Antiepileptic action: tonic extended convulsion induced by reserpine and electric stimulation; type: in vivo; conditions: male ddY mice treated with reserpine 5 mg/kg i.p.; test compound 30 mg/kg orally; electric stimulation 1,000 V, 50 mA, 0.2 second after one hour; compared with reserpine + solvent group, p<0.01 (Aspine-Welch test)
Procedure: Convulsion induced by administration of reserpine and electric stimulation has been known as an effective model for epilepsy [European Journal of Pharmacology, 1994, volume 23, page 260]. Male mice (body weight: 15 to 17 g; Nippon SLC, Hamamatsu) of ddY strain of four weeks age were subjected to a preliminary breeding and 65 mice where body weight became 22.4 to 26.0 g were used for the experiment. Fifteen mice among the above were used as a non-treated group. Reserpine (Apoplon Injection 1 mg; Daiichi Seiyaku) diluted with distilled water for injection (Otsuka Seiyaku, Naruto) was intraperitoneally administered (treatment with reserpine) at the dose of 5 mg/kg to each of the remaining 50 mice and the experiment was carried out after 18 to 24 hours from the administration. Among the mice subjected to the treatment with reserpine, two groups each comprising ten mice were randomly selected and used as a group administered with a solvent and a group administered with the test compound. The test compound was used as a suspension of a 0.5% MC solution [distilled water for injection containing 0.5% methyl cellulose 400 cP (Wako Pure Chemicals)] and Compound (I) was orally administered at the dose of 30 mg/kg (10 mL/kg in terms of volume) to the mice treated with reserpine (a group administered with the test compound). […]

Compound	minimum lethal dose (MLD) [1]	duration of convulsion (tonic extended convulsion) [2]
COc1cc(/C=C/c2nc3c(c(=O)n(C)c(=O)n3C)n2C)cc(OC)c1OC [Compound 1, (E)-8-(3,4,5-Trimethoxystyryl)caffeine]	> 1,000 mg/kg	significant shortening action
CCCn1c(=O)c2c(nc(/C=C/c3ccc(OC)c(OC)c3)n2C)n(CCC)c1=O [Compound 3, (E)-8-(3,4-Dimethoxystyryl)-7-methyl-1,3-dipropylxanthine]		significant shortening action
